Key:
[1] = ELISA: anti-calcitonin antibody epitope and bone calcium binding on calcium phosphate coated plate (SMCC series); conditions: 1 μg/well, OD 650 nm
Protocol: (§1) sCT or sCT analogues equivalent to 1 μg/well were added in Calcium Phosphate coated Osteoclast Activity Assay Substrate plate (OCT USA, Inc.) in duplicate and the binding of BP to the calcium phosphate was allowed for 1 hours in the presence of 100 μl 100 mM Sodium Phosphate buffer pH 7. Plates were then washed three times with the same buffer containing 0.05% v/v Tween 80 (PBST). To avoid nonspecific binding, the wells were incubated with 3% w/v Bovine Serum Albumin for 1 h at room temperature. After washings, the wells were incubated with 100 μl of 1:5000 diluted rabbit anti-salmon calcitonin primary antibodies (US Biologicals, USA) for 1 h at room temperature. The wells were then washed three times with PBST and the bound antibodies were then incubated with secondary antibody, 1:5000 diluted goat anti-rabbit IgG conjugated with horseradish peroxidase (GAM-HRPO), for 1 h at room temperature. After final washings, 100 μl of 3,3′,5,5′-tetramethylbenzidine (TMB substrate) was added to each well and incubated for 15 min at room temperature. The optical density (OD) was measured at 650 nm using an ELISA Vmax kinetic microplate reader (Molecular Devices Corp., California, and USA).

[2] = Bone mineral specificity: calcium pyrophosphate binding assay; conditions: 1 h, 100 mM phosphate buffer pH 7
Protocol: (§2) Bone targeting potential of sCT analogue was evaluated by determining the effect of sCT modification (due to chemical coupling) upon its bone mineral affinity. Specific volume of purified sCT analogue solution containing 10 μg of sCT was mixed with 1 mg Hydroxyapatite (HA) in 150 μL 100 mM phosphate buffer (pH 7.0) in microcentrifuge tubes in duplicate to give a final concentration of 66.67 μg/ml sCT. As a reference, control samples were incubated in tubes without HA (i.e., 0% of binding).
(§3) The tubes were incubated at room temperature on a shaker for 1 h, and centrifuged at 5000 g for 5 minutes to separate the HA from the supernatant. sCT concentration in the supernatant was determined using the BCA microprotein assay (Pierce, USA) as described above. HA centrifugate remaining after removal of supernatant was washed five times using 1 mL buffer each time and the last washing after centrifugation at 5000 g for 5 minutes was collected. Both the washings and the HA centrifugate were then analyzed for sCT as described above. The amount of sCT in the supernatant, washings and HA centrifugate was then inferred by measuring the absorbance at 562 nm, with a value of 100% for control samples without HA.
Bone mineral specificity of sCT analogue was then determined in the above manner using HA, calcium carbonate, calcium pyrophosphate, tricalcium phosphate and calcium oxalate.

[3] = Hydroxyapatite (HA) binding assay, bone mineral affinity; conditions: 10 μg sCT, 1 mg HA, 1 h, 100 mM phosphate buffer pH 7.0
Protocol: as §2, §3

RAW 264.7 cells = test: MTT cytotoxicity on osteoclast precursor RAW 264.7 cells (PEG series); type: cell-based, mouse; conditions: 100, 500 and 1000 nM sCT or equivalent, 4 hours incubation
Protocol: RAW 264.7 cells (ATCC VA, USA) were seeded on 96 well plates at an initial density of 2×10^4 cells/well and incubated in 200 μl GIBCO High Glucose 1× Dulbecco's Modified Eagle Medium (DMEM) (Invitrogen CA, USA) supplemented with 4.5 g/L D-Glucose, L-Glutamine, 110 mg/L Sodium Pyruvate, 10% heat inactivated fetal bovine serum (FBS) and 1% Penicillin-Streptomycin (10000 U/mL; Invitrogen) in a Thermo Fisher Scientific Water Jacketed CO2 incubator (37° C., 5% CO2) until the cells were 80% confluent.
After 72 hrs, media was replaced by 200 μl basic DMEM media without FBS and incubated for 30 minutes. […] After removing the supernatant and washing twice with phosphate buffer saline, purple formazan crystals formed were dissolved in 200 μl solubilization solution (in vitro toxicology assay kit, # TOX-1, Sigma Aldrich, St. Louis, USA) and the absorbance was measured at 570 nm using microplate reader. Experiment was performed for n=8 and the absorbance of wells containing cells without sCT treatment was considered as 100% viable and used to calculate the relative viability of sCT treated cells.
In all in vitro and in vivo bioactivity assay the maximum concentration used was equivalent to 100 nM sCT. However, cytoxicity was determined for the concentration up to 1000 nM sCT or equivalent. […]

[4] = ELISA: anti-calcitonin antibody epitope binding on calcium phosphate coated plate (PEG series); conditions: 1 μg/well, OD 650 nm
Protocol: as §1, with “with […]” for “with 100 μl”, “primary monoclonal” for “primary”, “were detected using” for “were then incubated with”, “peroxidase (GAM-HRPO)” for “peroxidase (GAM-HRPO),”

## Salmon calcitonin [sCT, reference compound]
[1]
  detection in ELISA after binding to calcium phosphate plate: not significantly detected
[2]
  sCT recovered in supernatant after incubation with Calcium Pyrophosphate: did not significantly reduce the sCT concentration in the supernatant
[3]
  sCT bound in HA: did not significantly bind to HA
RAW 264.7 cells
  cytotoxicity (absorbance of formazan solution) compared to untreated media: low levels of cytotoxicity
[4]
  detection in ELISA after binding to calcium phosphate plate: not significantly detected

From patent publication US8772235B2, “Compounds having peptides conjugated to bone targeting moieties and methods of making and using thereof” (The Governors of the University of Alberta, priority 2009, dated 2014)
